The text below walks through data of patent publication US20080081053A1, “Treatment Method” (priority 2004, published 2008).

The assay relates to advanced AML. Briefly: Phase 2 clinical study in patients with advanced AML. The note with it: for %myeloblasts in bone marrow: patient with HI for neutrophils, 36% at baseline. In kind it is in vivo, human. Here is the method: In a Phase 2 clinical study, 24 patients, 18 years or older, with advanced AML were treated with 12.5 mg AP23573 as a 30-minute intravenous infusion daily for 5 days every-2-weeks (QDX5, daily). The majority of patients enrolled in this trial had aggressive disease and received AP23573 study treatment as at least a 3rd line treatment regimen. Responses were assessed at the end of each cycle (4 weeks of study treatment). At the end of one cycle, two patients had Hematologic Improvement (HI), including erythroid and neutrophil minor responses. […] Six patients were stable at the end of Cycle 1 (neither response nor disease progression).
The criteria for observed responses were as follows: • a Minor Response for erythroid HI: for patients with pre-dosing hemoglobin less than 11 g/dL, […] increase in hemoglobin; for RBC transfusion-dependnt patients, 50% decrease in transfusion requirements • a Minor Response for neutrophil HI: for ANC less than 1.5×10^9 before dosing, ANC increase of at least 100%, but absolute increase less than 1.5×10^9 • Stable Disease/no response: no significant change since baseline (neither response nor progression criteria were met) • Progressive Disease: One of the following: a 50% or greater decrement from maximum response levels in graunulocytes or platelets, a reduction in hemoglobin concentration by at least 2 g/dL, or transfusion dependence

The structures appear in SMILES notation.

As for `CO[C@H]1C[C@@H]2CC[C@@H](C)[C@@](O)(O2)C(=O)C(=O)N2CCCC[C@H]2C(=O)O[C@H]([C@H](C)C[C@@H]2CC[C@@H](OP(C)(C)=O)[C@H](OC)C2)CC(=O)[C@H](C)/C=C(\C)[C@@H](O)[C@@H](OC)C(=O)[C@H](C)C[C@H](C)/C=C/C=C/C=C/1C` [AP23573], the “patients with Hematologic Improvement (HI), including erythroid and neutrophil minor responses” value (24 patients with advanced AML, 12.5 mg, 30-minute i.v. infusion daily for 5 days every 2 weeks (QDX5), at the end of one cycle (4 weeks)) is “two”. The “patients stable (neither response nor disease progression)” value (24 patients with advanced AML, end of Cycle 1, 12.5 mg i.v. QDX5) is “Six”. In addition, the “%myeloblasts in bone marrow” value by setting is: (at Cycle 2, 12.5 mg i.v. QDX5) 15%; (end of Cycle 1, 12.5 mg i.v. QDX5) 9%.
